# Tested on: MDA-MB-435S human breast cancer cells
# Test: MTT assay, proliferation of MDA-MB-435S cells
# Type: cell-based
# Conditions: Homo sapiens, 72 h, read-out: Cell Survival Rate IC50
# Method: The experiments for evaluating the antineoplasmic activities of the compounds according to the present invention were carried out, and the compounds' antineoplasmic activities in vitro was evaluated by determining the inhibitory activities thereof against the proliferation of MDA-MB-435S human breast cancer cells.
# The antineoplasmic activities were determined by using the MTT assay, which is based on the metabolic reduction of 3-(4,5-dimethylthylthiazol-2-yl)-2,5-diphenyl tetrazolium bromide (MTT). The dehydrogenases, which are related to NADP (niacinamide adenine dinucleotide phosphate, coenzyme) and present in mitochondrions of living cells, can reduce the yellow MTT to an insoluble, dark purple formazan. […] After the formazan is dissolved in DMSO, the optical density is determined on an ELISA Reader at the wavelength of 550/690 nm.
# The adhered MDA-MB-4355 cells in logarithmic growth phase, were digested by 0.05% trypsogen, counted and formulated into a cell suspension with a medium. After counted, the suspension was inoculated on a 96-well plate with 3000 cells and 100 μl medium per well. The inoculated 96-well plate was placed overnight in an incubator at 37 with 5% CO2 to allow the cells to adhere to the wall. On the next day, the administration of the drugs started. Before the administration, into some of the control wells, each was added 20 μl of the MTT solution (5 mg/ml) without removing the medium therein. After incubated for 3 h, the absorption at A550/690 was recorded as the initial cell concentration. For the drug wells, each was added into 100 μl of medium containing 2 μl of compound solution. For the control wells which use DMSO as background control, each was also added into 100 μl of medium containing 2 μl of DMSO. In addition, each experiment was carried out with adriamycin as the positive control. Subsequently, the 96-well plate was incubated in an incubator at 37 with 5% CO2 for 72 h. each compound was tested in triplicate wells (6 μl of compound solution was put into a sterilized eppendorf centrifuge tube, then 300 μl of medium was added and mixed well, and the mixture was distributed into 3 wells respectively), and at six concentrations which form a gradient. 3 days (72 h) later, 40 μl of MTT solution (5 mg/ml) was put into each well directly (without sucking off the medium therein), and the plate was incubated in the incubator for 3 h and then taken out. The liquid in each well was sucked off, and then 100 μl of DMSO was put into each well to dissolve the crystal completely with slight shake. The absorbance of the solution in each well was determined at 550/690 nm on an ELISA Reader as the cell density after treated with the compound. The growth inhibition of compound against breast cancer cells MDA-MB-435S was represented by the cell survival rate, and IC50 was determined from the profile of cell survival rate vs compound concentration. The calculating formula was as follows: cell survival rate=[(cells+compound)A550/690/(cells+compound vector DMSO)A550/690]×100%
row,SMILES,IC50 [µM]
1,C=CCNC(=O)[C@H](CCSC)NC(=O)[C@H](OC)[C@H](O)[C@@H](O)[C@H](O)/C=C/C(C)(C)C [Compound L432],4.57
2,CO[C@@H](C(=O)N[C@@H](C)C(=O)NCCO)[C@H](O)[C@@H](O)[C@H](O)/C=C/C(C)(C)C [Compound L376],5.44
3,CO[C@@H](C(=O)N[C@@H](C)C(=O)NCCOC(C)C)[C@H](O)[C@@H](O)[C@H](O)/C=C/C(C)(C)C [Compound L418c],13.9
4,C=CCNC(=O)[C@H](C)NC(=O)[C@H](OC)[C@H](O)[C@@H](O)[C@H](O)/C=C/C(C)(C)C [Compound L372],3.53
5,CO[C@@H](C(=O)N[C@@H](CCCCNC(=O)OC(C)(C)C)C(=O)NCCOC(=O)C1CCCCC1)[C@H](O)[C@@H](O)[C@H](O)/C=C/C(C)(C)C [Compound L643],1.56
6,CO[C@@H](C(=O)N[C@@H](C)C(=O)NCC(=O)OC1CCCCC1)[C@H](O)[C@@H](O)[C@H](O)/C=C/C(C)(C)C [Compound L472-4],1.54
7,CO[C@@H](C(=O)N[C@@H](C)C(=O)NCCOC(=O)c1ccccc1)[C@H](O)[C@@H](O)[C@H](O)/C=C/C(C)(C)C [Compound L480],2.37
8,CO[C@@H](C(=O)N[C@@H](C)C(=O)NCCCOCC(C)C)[C@H](O)[C@@H](O)[C@H](O)/C=C/C(C)(C)C [Compound L446b],9.56
9,CO[C@@H](C(=O)N[C@@H](C)C(=O)NCCOCC(C)C)[C@H](O)[C@@H](O)[C@H](O)/C=C/C(C)(C)C [Compound L432a],40
10,CO[C@@H](C(=O)N[C@@H](C)C(=O)NCCOC(=O)OCCCc1ccccc1)[C@H](O)[C@@H](O)[C@H](O)/C=C/C(C)(C)C [Compound L538b],0.76
11,CO[C@@H](C(=O)N[C@H](C(=O)NCCOC(=O)C1CCCCC1)C(C)C)[C@H](O)[C@@H](O)[C@H](O)/C=C/C(C)(C)C [Compound L514c],2.22
12,CCC(C)[C@H](NC(=O)[C@H](OC)[C@H](O)[C@@H](O)[C@H](O)/C=C/C(C)(C)C)C(=O)NCCOC(=O)C1CCCCC1 (stereo partly drawn) [Compound L528a],3.24
13,C=CCNC(=O)[C@@H](NC(=O)[C@H](OC)[C@H](O)[C@@H](O)[C@H](O)/C=C/C(C)(C)C)C(C)C [Compound L400],9.68
14,CO[C@@H](C(=O)N[C@@H](C)C(=O)NCCOC(=O)[C@H]1CCCO1)[C@H](O)[C@@H](O)[C@H](O)/C=C/C(C)(C)C [Compound L474],8.86
15,CO[C@@H](C(=O)N[C@@H](CC(C)C)C(=O)NCCOC(=O)C1CCCCC1)[C@H](O)[C@@H](O)[C@H](O)/C=C/C(C)(C)C [Compound L528b],2.62
16,CCCCC(CC)C(=O)OCCNC(=O)[C@H](C)NC(=O)[C@H](OC)[C@H](O)[C@@H](O)[C@H](O)/C=C/C(C)(C)C (stereo partly drawn) [Compound L502],2.55
17,CO[C@@H](C(=O)N[C@@H](Cc1c[nH]c2ccccc12)C(=O)NCCO)[C@H](O)[C@@H](O)[C@H](O)/C=C/C(C)(C)C [Compound L491],5.13
18,CO[C@@H](C(=O)N[C@@H](C)C(=O)NCCOC(=O)C(C)(C)C)[C@H](O)[C@@H](O)[C@H](O)/C=C/C(C)(C)C [Compound L460],3.38
19,C=CCNC(=O)[C@H](Cc1cn(COCc2ccccc2)cn1)NC(=O)[C@H](OC)[C@H](O)[C@@H](O)[C@H](O)/C=C/C(C)(C)C [Compound L558b],1.9

row,SMILES,IC50 [µM]
1,CO[C@@H](C(=O)N[C@@H](C)C(=O)NCC1CC(Cc2ccccc2)C(=O)O1)[C@H](O)[C@@H](O)[C@H](O)/C=C/C(C)(C)C (stereo partly drawn) [Compound L521],25.2
2,CO[C@@H](C(=O)N[C@@H](C)C(=O)NCCCOC(=O)C1CCCCC1)[C@H](O)[C@@H](O)[C@H](O)/C=C/C(C)(C)C [Compound L500b],0.14
3,CO[C@@H](C(=O)N[C@@H](C)C(=O)NCCOC(=O)C1CC1)[C@H](O)[C@@H](O)[C@H](O)/C=C/C(C)(C)C [Compound L444g],6.07
4,CO[C@@H](C(=O)N[C@@H](C)C(=O)NCCOC(=O)CC1CCCCC1)[C@H](O)[C@@H](O)[C@H](O)/C=C/C(C)(C)C [Compound L500c],1.93
5,CO[C@@H](C(=O)N[C@@H](Cc1ccccc1)C(=O)NCCO)[C@H](O)[C@@H](O)[C@H](O)/C=C/C(C)(C)C [Compound L452],5.25
6,CO[C@@H](C(=O)N[C@@H](CC(C)C)C(=O)NCCO)[C@H](O)[C@@H](O)[C@H](O)/C=C/C(C)(C)C [Compound L418b],1.5
7,C#CCCCC(=O)OCCNC(=O)[C@H](C)NC(=O)[C@H](OC)[C@H](O)[C@@H](O)[C@H](O)/C=C/C(C)(C)C [Compound L471b],0.11
8,CO[C@@H](C(=O)N[C@@H](C)C(=O)NCC(C)OC(=O)C1CCCCC1)[C@H](O)[C@@H](O)[C@H](O)/C=C/C(C)(C)C (stereo partly drawn) [Compound L500a],0.8
9,CO[C@@H](C(=O)N[C@@H](C)C(=O)NCCOC(=O)CCCCCCCCCN=[N+]=[N-])[C@H](O)[C@@H](O)[C@H](O)/C=C/C(C)(C)C [Compound L572],0.11
10,CO[C@@H](C(=O)N[C@@H](C)C(=O)NCCOC(=O)C1CCCC1)[C@H](O)[C@@H](O)[C@H](O)/C=C/C(C)(C)C [Compound L472-3],0.72
11,CO[C@@H](C(=O)N[C@@H](C)C(=O)NCCOC(=O)C1CCC1)[C@H](O)[C@@H](O)[C@H](O)/C=C/C(C)(C)C [Compound L458],0.89
12,CO[C@@H](C(=O)N[C@@H](C)C(=O)NCCNC(=O)C1CCCCC1)[C@H](O)[C@@H](O)[C@H](O)/C=C/C(C)(C)C [Compound L485],3.15
13,CO[C@@H](C(=O)N[C@@H](C)C(=O)NCCOCc1ccccc1)[C@H](O)[C@@H](O)[C@H](O)/C=C/C(C)(C)C [Compound L466],~10
14,CO[C@@H](C(=O)N[C@@H](C)C(=O)NCCCOC1CCCCC1)[C@H](O)[C@@H](O)[C@H](O)/C=C/C(C)(C)C [Compound L472],> 2.5
15,CO[C@@H](C(=O)N[C@@H](C)C(=O)NCCCOC(C)C)[C@H](O)[C@@H](O)[C@H](O)/C=C/C(C)(C)C [Compound L432b],21.6
16,CCCC[C@H](NC(=O)[C@H](OC)[C@H](O)[C@@H](O)[C@H](O)/C=C/C(C)(C)C)C(=O)NCCOC(=O)C1CCCCC1 [Compound L528c],2.91
17,CO[C@@H](C(=O)N[C@@H](C)C(=O)NCC(=O)NC1CCCCC1)[C@H](O)[C@@H](O)[C@H](O)/C=C/C(C)(C)C [Compound L471],4.79
18,C=CCNC(=O)[C@H](CCC(=O)OC(C)(C)C)NC(=O)[C@H](OC)[C@H](O)[C@@H](O)[C@H](O)/C=C/C(C)(C)C [Compound L486e],2.85
19,CO[C@@H](C(=O)N[C@@H](C)C(=O)NCCOC(=O)C(C)C)[C@H](O)[C@@H](O)[C@H](O)/C=C/C(C)(C)C [Compound L446a],7.06

# Tested on: human breast cancer cells MDA-MB-435 transplanted on nude mice
# Test: Antineoplasmic activity in vivo, MDA-MB-435 transplanted tumor on nude mice
# Conditions: MMC 5 mg/kg, d1, i.v.; P <0.05
# Method: Dosage: among 3 groups, the dosages of L538 were set at 5, 10 and 20 mg/kg as the high, middle and low dosages, respectively, administrating intravenously 3 times a week; while MMC was administrated intravenously at the first day whit a dosage of 5 mg/kg.
# Animals: BALB/CA nude mice, male, 40-45 days old, body weight: 18±1 g, provided by Shanghai Institute of Materia Medica, Chinese Academy of Sciences. […] Animal number in each group: 7 in negative control group, and 4 in administration group.
# The amount of inoculated cells was 5×10^6. After the transplanted tumor was formed by inoculation, it was used after passed for 3 generations in nude mice.
# Experimental procedure: tumor tissue in productive phase was cut into nubs of about 1.5 mm^3. Under sterile conditions, the nubs were inoculated subcutaneously in right axillary fossa of the nude mice. The diameters of the transplanted tumors on nude mice were measured by a vernier caliper. When the tumors grew up to 100-200 mm^3, the animals were divided randomly into groups. Mice in experimental groups were administered intravenously every other day. […] The total administration duration was 3 weeks. For the positive control, MMC, Mice were administered intravenously once at the first day of a week, and the total administration duration was 3 weeks. Mice in control groups were administrated physiologic saline in equivalent amount. The diameter of the tumor and weight of mice were measured twice a week. The equation for calculating the TV (tumor volume) was as follows: TV=½×a×b^2, • wherein, a is length and b is width. RTV (relative tumor volume) was calculated based on the measured results, and the equation thereof was as follows: RTV=Vt/V0 • wherein, V0 is the tumor volume measured when the mice were grouped (i.e. d0), and Vt is the tumor volume at each measurement. The evaluation index for the antitumor activity was the relative tumor proliferation rateT/C (%).
# The calculation equation was as follows: T/C(%)=(TRTV/CRTV)×100, • wherein, TRTV is the RTV of therapeutic Group and CRTV is RTV of negative control group.
row,SMILES,T/C (%)
1,"CO[C@@]12[C@H](COC(N)=O)C3=C(C(=O)C(C)=C(N)C3=O)N1C[C@@H]1N[C@@H]12 [MMC, mitomycin, reference compound]",44.3

# Same assay, conditions: MMC 5 mg/kg, d1, i.v.; d0 132 ± 52
row,SMILES,TV (mm^3) d21 [mm^3]
1,"CO[C@@]12[C@H](COC(N)=O)C3=C(C(=O)C(C)=C(N)C3=O)N1C[C@@H]1N[C@@H]12 [MMC, mitomycin, reference compound]",844 ± 308

# Same assay, conditions: MMC 5 mg/kg, d1, i.v.; d21
row,SMILES,RTV
1,"CO[C@@]12[C@H](COC(N)=O)C3=C(C(=O)C(C)=C(N)C3=O)N1C[C@@H]1N[C@@H]12 [MMC, mitomycin, reference compound]",6.6 ± 1.6

# Same assay, conditions: MMC 5 mg/kg, d1, i.v.; initial 17.8 g
row,SMILES,Body Weight(g) Ultimate [g]
1,"CO[C@@]12[C@H](COC(N)=O)C3=C(C(=O)C(C)=C(N)C3=O)N1C[C@@H]1N[C@@H]12 [MMC, mitomycin, reference compound]",21.7

# — US8470763B2, “Alpha-amino-N-substituted amides, pharmaceutical composition containing them and uses thereof” (Shanghai Institute of Materia Medica Chinese Academy of …, priority 2007, dated 2013)
